# Measured values taken from article PMC10935965, “An odorant receptor mediates the avoidance of Plutella xylostella against parasitoid” (BMC Biology, 2024).
# Tests used:
# PxylOR16/PxylOrco [1] = target: T1, PxylOR16/PxylOrco (Plutella xylostella, UniProt V9SFT8); test: two-electrode voltage clamp, Xenopus oocytes; format: cell-based; conditions: agonist, co-expressed with PxylOrco, holding potential -80 mV, Ringer's buffer
# T1 construct: no tag stated; with Odorant receptor coreceptor
# T1 sequence (V9SFT8 1-405): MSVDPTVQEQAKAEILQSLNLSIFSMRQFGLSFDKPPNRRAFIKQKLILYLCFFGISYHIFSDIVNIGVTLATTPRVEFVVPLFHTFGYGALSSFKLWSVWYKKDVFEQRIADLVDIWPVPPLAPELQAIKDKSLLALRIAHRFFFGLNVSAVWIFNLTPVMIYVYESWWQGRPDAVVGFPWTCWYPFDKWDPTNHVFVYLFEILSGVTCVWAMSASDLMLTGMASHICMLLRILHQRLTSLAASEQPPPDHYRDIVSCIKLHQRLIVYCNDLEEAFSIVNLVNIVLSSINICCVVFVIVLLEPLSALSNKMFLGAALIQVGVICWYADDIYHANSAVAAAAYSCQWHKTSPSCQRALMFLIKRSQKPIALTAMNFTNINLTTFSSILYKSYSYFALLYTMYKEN
# T1 sequence (D0EZE1 1-471 partner): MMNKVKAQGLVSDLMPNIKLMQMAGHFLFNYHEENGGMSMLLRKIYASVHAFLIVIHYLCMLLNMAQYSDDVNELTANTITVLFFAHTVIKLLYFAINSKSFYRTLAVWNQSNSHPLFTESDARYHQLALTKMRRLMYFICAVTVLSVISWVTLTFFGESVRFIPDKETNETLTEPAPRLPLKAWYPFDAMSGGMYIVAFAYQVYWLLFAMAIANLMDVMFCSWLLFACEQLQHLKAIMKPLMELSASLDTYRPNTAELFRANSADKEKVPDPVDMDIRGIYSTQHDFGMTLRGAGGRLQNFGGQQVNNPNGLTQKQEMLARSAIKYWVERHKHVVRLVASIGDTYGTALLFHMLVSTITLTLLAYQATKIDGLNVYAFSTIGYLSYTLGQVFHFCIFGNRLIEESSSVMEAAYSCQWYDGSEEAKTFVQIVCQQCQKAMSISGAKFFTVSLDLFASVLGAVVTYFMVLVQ
# PxylOR16/PxylOrco [2] = target: T1, PxylOR16/PxylOrco; test: two-electrode voltage clamp, Xenopus oocytes; format: cell-based
compound,measurement,setting,value
CCCCCCCO [1-heptanol],inward current response at 10^-4 M,PxylOR16/PxylOrco [1],they also responded weakly to two other volatiles (octyl acetate and 1-heptanol)
CCCCCCC=O [heptanal],EC50,PxylOR16/PxylOrco [2],17.6 µM
CCCCCCCCOC(C)=O [octyl acetate],inward current response at 10^-4 M,"PxylOR16/PxylOrco [1]; weak agonist, 10^-4 M",they also responded weakly to two other volatiles (octyl acetate and 1-heptanol)
